{"source": "patent US6486381B1", "about": "“Genetically engineered mice containing alterations in the genes encoding retinoic acid receptor proteins” (Institut National de la Sante et de la Recherche Medicale, priority 1993, dated 2002)", "assay_type_in_all_cases": "in vivo, mouse", "key": {"[1]": {"system": "wild type, RARγ+/− and RARγ−/− fetuses", "assay": "RA-induced skeletal malformations in wild type, RARγ+/− and RARγ−/− offspring", "experimental": "For whole mount skeletal analysis, fetuses were collected at day 18.5 p.c. and stored at −20° C. Skeletons were prepared as previously described (Lufkin et al., Nature 359:835-841 (1992)). For histological analysis, fetuses were skinned and then fixed in Bouin's fluid. Paraffin sections, 7 μm thick, were stained with Groat's hematoxylin and Mallory's trichrome. Organs were fixed in 10% formalin, and histological sections, 5 μm thick, were stained with hematoxylin and eosin. RARγ^+/− heterozygote animals were mated overnight and the presence of a vaginal plug at noon the next day considered as day 0.5 p.c. At various times, pregnant females received a single dose of RA dissolved in sunflower seed oil at a final delivery of 100 mg RA per kg animal. […] To determine if any of these malformations could be mediated by RARγ, pregnant dams from heterozygote crosses were treated with RA at day 8.5 or 9.0 p.c., and we examined day 18.5 p.c. fetuses for skeletal malformations. […] Comparison of RA-induced skeletal malformations in wild type, RARγ^+/− and RARγ^−/− offspring. […] Skeletons were prepared, and malformations scored under a dissecting microscope. Where possible, fetuses from the same litter were compared."}, "RARγ2−/− animals": {"system": "RARγ2−/− animals", "assay": "RA-induced skeletal malformations in RARγ2−/− animals", "conditions": "RARγ2−/− animals versus control littermates, identical conditions"}, "[2]": {"system": "wild type and RARβ2 null embryos", "assay": "RA-induced hindbrain and forebrain alterations in wild type and RARβ2 null embryos (in situ hybridization)", "conditions": "25 mg/kg at 7.25 dpc", "experimental": "For generation of hindbrain malformations timed mating experiments were performed and all-trans RA (Sigma) (25 mg/kg body weight) was administered to the mother by oral gavage at 7.25 dpc. Embryos were collected at 9.0 dpc, yolk sacs were taken for genotyping and embryos were fixed in 4% paraformaldehyde and embedded in paraffin for in situ hybridization on sections. For each embryo, three sets of alternate sections were hybridized to Hoxb-1, Krox-20 and Hoxa-3 probes. These probes have been described previously (Gaunt et al., Development 104 suppl.:71-82 (1988); Wilkinson et al., Nature 337:461-464 (1989); Hunt et al., Nature 353:861-864 (1991)). […] A separate series of embryos was processed for whole-mount in situ hybridization with a digoxigenin-labelled Hoxb-1 riboprobe. Both in situ hybridization procedures were performed as described in Décimo et al. (“In situ Hybridization to Cellular RNA,” in Gene Probes: A Practical Approach, Vol. 2, Hames et al., eds., Oxford University Press, Oxford, England, in press). For induction of limb malformations, all-trans RA was administered at 11.5 dpc (80 mg/kg) and fetuses were collected at 18.5 dpc and analyzed for skeletal malformations. For investigating induction of RARβ2 promoter activity in RARβ2 mutants, 25 mg/kg RA was administered at days 10.5 and 11.5 pc, then embryos were collected and stained for LacZ activity after 4 hours. For whole-mount skeletal analysis, fetuses were collected at 18.5 dpc by ceasarean section and skeletons were prepared as described (Lufkin et al., Nature 359:835-841 (1992)). Histological analysis was as in Lohnes et al. (Cell 73:643-658 (1993)) and lacZ staining as in Mendelsohn et al. (Development 113:723-734 (1991)).\nRARβ2+/− intercrosses were set up, and pregnant females were given 25 mg/kg all-trans RA at 7.25 dpc, a dose which is known to produce rhombomeric alterations. […] Hoxb-1 expression was analyzed by whole-mount in situ hybridization."}, "[3]": {"system": "wild type and RARβ2 null fetuses", "assay": "RA-induced limb malformations in wild type and RARβ2 null fetuses", "conditions": "80 mg/kg in utero at 11.5 dpc, fetuses at 18.5 dpc", "experimental": "For generation of hindbrain malformations timed mating experiments were performed and all-trans RA (Sigma) (25 mg/kg body weight) was administered to the mother by oral gavage at 7.25 dpc. Embryos were collected at 9.0 dpc, yolk sacs were taken for genotyping and embryos were fixed in 4% paraformaldehyde and embedded in paraffin for in situ hybridization on sections. For each embryo, three sets of alternate sections were hybridized to Hoxb-1, Krox-20 and Hoxa-3 probes. These probes have been described previously (Gaunt et al., Development 104 suppl.:71-82 (1988); Wilkinson et al., Nature 337:461-464 (1989); Hunt et al., Nature 353:861-864 (1991)). […] A separate series of embryos was processed for whole-mount in situ hybridization with a digoxigenin-labelled Hoxb-1 riboprobe. Both in situ hybridization procedures were performed as described in Décimo et al. (“In situ Hybridization to Cellular RNA,” in Gene Probes: A Practical Approach, Vol. 2, Hames et al., eds., Oxford University Press, Oxford, England, in press). For induction of limb malformations, all-trans RA was administered at 11.5 dpc (80 mg/kg) and fetuses were collected at 18.5 dpc and analyzed for skeletal malformations. For investigating induction of RARβ2 promoter activity in RARβ2 mutants, 25 mg/kg RA was administered at days 10.5 and 11.5 pc, then embryos were collected and stained for LacZ activity after 4 hours. […]"}, "RARα1 null homozygotes": {"system": "RARα1 null homozygotes", "assay": "RA-induced malformations in RARα1 null homozygotes", "conditions": "RA at days 8.5-9.0 p.c."}, "[4]": {"conditions": "RA 100 mg/kg single dose to dam at day 8.5 p.c., RARγ +/+ fetuses, day 18.5 p.c."}, "[5]": {"conditions": "RA 100 mg/kg single dose to dam at day 8.5 p.c., RARγ +/− fetuses, day 18.5 p.c."}, "[6]": {"conditions": "RA 100 mg/kg single dose to dam at day 8.5 p.c., RARγ −/− fetuses, day 18.5 p.c."}, "[7]": {"conditions": "RA 100 mg/kg single dose to dam at day 9.0 p.c., +/−, fetuses day 18.5 p.c."}, "[8]": {"conditions": "RA 100 mg/kg single dose to dam at day 9.0 p.c., RARγ +/− fetuses, day 18.5 p.c."}, "[9]": {"conditions": "RA 100 mg/kg single dose to dam at day 9.0 p.c., RARγ −/− fetuses, day 18.5 p.c."}}}
{"smiles": "CC1=C(/C=C/C(C)=C/C=C/C(C)=C/C(=O)O)C(C)(C)CCC1", "note": "[RA, retinoic acid]", "values": [{"measurement": "Caudal truncations", "setting": "[1]; [4]", "value": "11 (100%) fetuses (%)"}, {"measurement": "Craniofacial malformations", "setting": "[1]; [4]", "value": "11 (100%) fetuses (%)"}, {"measurement": "Degenerate ribs", "setting": "[1]; [4]", "value": "10 (91%) fetuses (%)"}, {"measurement": "Homeotic transformations: 8 vertebrosternal ribs (T8 → T7)", "setting": "[1]; [4]", "value": "7 (64%) fetuses (%)"}, {"measurement": "Homeotic transformations: 14 or 15 ribs (L → T)", "setting": "[1]; [4]", "value": "6 (54%) fetuses (%)"}, {"measurement": "Caudal truncations", "setting": "[1]; [5]", "value": "13 (81%) fetuses (%)"}, {"measurement": "Craniofacial malformations", "setting": "[1]; [5]", "value": "16 (100%) fetuses (%)"}, {"measurement": "Degenerate ribs", "setting": "[1]; [5]", "value": "6 (38%) fetuses (%)"}, {"measurement": "Homeotic transformations: 8 vertebrosternal ribs (T8 → T7)", "setting": "[1]; [5]", "value": "8 (50%) fetuses (%)"}, {"measurement": "Homeotic transformations: 14 or 15 ribs (L → T)", "setting": "[1]; [5]", "value": "14 (87%) fetuses (%)"}, {"measurement": "Malformed lumbar/sacral vertebrae", "setting": "[1]; [5]", "value": "3 (19%) fetuses (%)"}, {"measurement": "Caudal truncations", "setting": "[1]; [6]", "value": "0 (0%) fetuses (%)"}, {"measurement": "Craniofacial malformations", "setting": "[1]; [6]", "value": "10 (100%) fetuses (%)"}, {"measurement": "Degenerate ribs", "setting": "[1]; [6]", "value": "0 (0%) fetuses (%)"}, {"measurement": "Homeotic transformations: 8 vertebrosternal ribs (T8 → T7)", "setting": "[1]; [6]", "value": "6 (50%) fetuses (%)"}, {"measurement": "Homeotic transformations: 14 or 15 ribs (L → T)", "setting": "[1]; [6]", "value": "7 (70%) fetuses (%)"}, {"measurement": "Homeotic transformations: Number of lumbar vertebrae: 5", "setting": "[1]; [6]", "value": "1 (10%) fetuses (%)"}, {"measurement": "Homeotic transformations: Number of lumbar vertebrae: 6", "setting": "[1]; [6]", "value": "9 (90%) fetuses (%)"}, {"measurement": "Homeotic transformations: Number of lumbar vertebrae: 7", "setting": "[1]; [6]", "value": "0 (0%) fetuses (%)"}, {"measurement": "Malformed lumbar/sacral vertebrae", "setting": "[1]; [6]", "value": "0 (0%) fetuses (%)"}, {"measurement": "Caudal truncations", "setting": "[1]; [7]", "value": "13 (100%) fetuses (%)"}, {"measurement": "Craniofacial malformations", "setting": "[1]; [7]", "value": "13 (100%) fetuses (%)"}, {"measurement": "Degenerate ribs", "setting": "[1]; [7]", "value": "0 (0%) fetuses (%)"}, {"measurement": "Homeotic transformations: 8 vertebrosternal ribs (T8 → T7)", "setting": "[1]; [7]", "value": "7 (54%) fetuses (%)"}, {"measurement": "Homeotic transformations: 14 or 15 ribs (L → T)", "setting": "[1]; [7]", "value": "7 (54%) fetuses (%)"}, {"measurement": "Caudal truncations", "setting": "[1]; [8]", "value": "14 (58%) fetuses (%)"}, {"measurement": "Craniofacial malformations", "setting": "[1]; [8]", "value": "24 (100%) fetuses (%)"}, {"measurement": "Degenerate ribs", "setting": "[1]; [8]", "value": "0 (0%) fetuses (%)"}, {"measurement": "Homeotic transformations: 8 vertebrosternal ribs (T8 → T7)", "setting": "[1]; [8]", "value": "9 (38%) fetuses (%)"}, {"measurement": "Homeotic transformations: 14 or 15 ribs (L → T)", "setting": "[1]; [8]", "value": "8 (33%) fetuses (%)"}, {"measurement": "Malformed lumbar/sacral vertebrae", "setting": "[1]; [8]", "value": "10 (42%) fetuses (%)"}, {"measurement": "Caudal truncations", "setting": "[1]; [9]", "value": "0 (0%) fetuses (%)"}, {"measurement": "Craniofacial malformations", "setting": "[1]; [9]", "value": "18 (100%) fetuses (%)"}, {"measurement": "Degenerate ribs", "setting": "[1]; [9]", "value": "0 (0%) fetuses (%)"}, {"measurement": "Homeotic transformations: 8 vertebrosternal ribs (T8 → T7)", "setting": "[1]; [9]", "value": "11 (61%) fetuses (%)"}, {"measurement": "Homeotic transformations: 14 or 15 ribs (L → T)", "setting": "[1]; [9]", "value": "11 (61%) fetuses (%)"}, {"measurement": "Homeotic transformations: Number of lumbar vertebrae: 5", "setting": "[1]; [9]", "value": "1 (7%) fetuses (%)"}, {"measurement": "Homeotic transformations: Number of lumbar vertebrae: 6", "setting": "[1]; [9]", "value": "15 (83%) fetuses (%)"}, {"measurement": "Homeotic transformations: Number of lumbar vertebrae: 7", "setting": "[1]; [9]", "value": "3 (16%) fetuses (%)"}, {"measurement": "Malformed lumbar/sacral vertebrae", "setting": "[1]; [9]", "value": "0 (0%) fetuses (%)"}, {"measurement": "lumbar to thoracic, sacral to lumbar and lumbar to sacral vertebral transformations", "setting": "[1]; RA-treated RARγ null homozygotes", "value": "also occurred"}, {"measurement": "RA-induced truncations", "setting": "[1]; RARγ heterozygotes, RA at day 8.5 p.c.", "value": "partially resistant"}, {"measurement": "lumbo-sacral vertebral malformations, including fusion of the neural arches and disorganized vertebral centres", "setting": "[1]; RARγ+/− animals, RA-treated", "value": "always exhibited lumbo-sacral vertebral malformations"}, {"measurement": "spina bifida, truncation of the axial skeleton in the post-thoracic region, degenerate or fused ribs, disorganized vertebral centres or malformed neural arches", "setting": "[1]; RARγ−/− embryos exposed to RA at day 8.5 p.c.", "value": "none"}, {"measurement": "truncations and associated defects", "setting": "[1]; RARγ−/− littermates, RA at day 9.0 p.c.", "value": "never observed"}, {"measurement": "truncations and associated defects", "setting": "[1]; WT embryos, RA at day 9.0 p.c. compared to day 8.5 p.c.", "value": "progressively more posterior truncations and associated defects"}, {"measurement": "spina bifida, truncation of the axial skeleton in the post-thoracic region, degenerate or fused ribs, disorganized vertebral centres or malformed neural arches", "setting": "[1]; WT fetuses exposed to RA at day 8.5 p.c.", "value": "All WT fetuses exhibited these malformations"}, {"measurement": "type and frequency of RA-induced malformations", "setting": "RARγ2−/− animals", "value": "same type and frequency of RA-induced malformations as control littermates"}, {"measurement": "Hoxa-3 expression pattern", "setting": "[2]; embryos collected at 9.0 dpc", "value": "No significant alteration"}, {"measurement": "forebrain truncation", "setting": "[2]; observed at 9.0-9.5 dpc, wild-type and RARβ2 null embryos", "value": "Severe truncations of the forebrain"}, {"measurement": "Krox-20 transcripts (in situ hybridization)", "setting": "[2]; RA-treated embryos", "value": "not detected in the putative R3"}, {"measurement": "Hoxb-1 expression (in situ hybridization)", "setting": "[2]; wild type and RARβ2 null mutants", "value": "rostral expansion of the Hoxb-1 transcript domain"}, {"measurement": "nature or extent of the limb malformations, wild type versus RARβ2 null fetuses", "setting": "[3]", "value": "no apparent differences"}, {"measurement": "limb malformations (truncated long bones, missing digits)", "setting": "[3]; wild type and RARβ2 null, compared to untreated", "value": "severely malformed limbs"}, {"measurement": "resistance to RA-induced malformations (lumbosacral truncations)", "setting": "RARα1 null homozygotes", "value": "not observed"}]}
